# Data as given in paper PMC4245125, “Pharmacological and Behavioral Characterization of D-473, an Orally Active Triple Reuptake Inhibitor Targeting Dopamine, Serotonin and Norepinephrine Transporters” (PLoS ONE, 2014).
# Where a name gives a salt, the structure may show the parent alone.
# What was measured:
# [1] = tested on: locomotor activity (horizontal activity); experiment: Locomotor activity in rats; assay type: in vivo; conditions: rat; 5 mg/kg i.p.; vs vehicle (P<0.001)
# Method: Sprague Dawley Rats were tested at 25 mg/kg oral dose of D-473 to monitor changes in any locomotor activity in acrylic Auto-Track/Opto-Varimex-4 System (Columbus Instrument; Columbus, Ohio). The purpose was to evaluate locomotor activity of the same doses of drug that were used in the forced swim test. Rats were acclimated in the test chambers for 1 h prior to oral administration of D-473. Locomotor activity of the drug was measured for a total of two hour post administration of the drug which corresponded to the time of measurement in the forced swimming experiment. GBR 12909 was studied as a control drug known to stimulate and was administered i.p. as in published studies; vehicle was orally administered.
# [2] = Plasma concentration after oral administration in rats; assay type: in vivo; conditions: rat, male Sprague-Dawley rats, 25 mg/kg PO
# Method: Sample preparation: Following oral administration of 25 mg/kg of D-473 and D-142 in male Sprague Dawley rats, the blood samples were collected at different time points over a period of 8 h for analysis. Concentrations of D-473 and D-142 in plasma were quantitated using a set of calibration standards prepared in blank matrix that were processed in parallel. Plasma concentration evaluation was carried out by the CRO, Absorption System, PA. Additionally, brain uptake studies of D-473 were carried out at three different time points (2, 4 and 6 h) following oral administration of 25 mg/kg D-473. Concentrations of D-473 in rat brain were quantitated using a set of calibration standards which were prepared in blank brain homogenate matrix on the day of analysis. The standard samples (5, 10, 25, 100, 500, 1000, and 2000 ng/mL) for calibration curve were prepared by spiking 45 µL of blank rat plasma with 5 µL of appropriate working dilution of D-473 in acetonitrile. The bioanalytical sample preparation for brain and plasma analysis followed by quantification of test compounds entailed the addition of 250 µL acetonitrile to every 50 µL of standard and analyte samples to precipitate tissue plasma proteins and tissue macromolecules. These mixtures were then vortexed for 15 min at 1400 rpm. The suspensions were then clarified by centrifugation (18000 g, 10 min at 4°C), and each 150 µL of the resulting supernatant was mixed well with 50 µL 0.1% formic acid in 50/50 (v/v) ACN/water solution for about 10 sec. The mixtures were again centrifuged (18000 g, 10 min at 4°C) before 100 µL of clear supernatant were transferred to auto sampler vials for LC-MS/MS analysis.
# The analysis of blood sample was carried out by the CRO Absorption system, PA. Briefly, the analysis was carried out by Waters Acquity UPLC equipped with PE Sciex API4000 mass spectrometer. Reverse phase Waters Acquity BEH Phenyl Column 1.7micron, 2.1×30 mm column was used for analysis. 5 µL of sample solutions were injected with a flow rate 1 mL/min and the samples were eluted with gradient elution using solvent A (10% buffer: 90% water) and solvent B (10% buffer: 90% acetonitrile). Buffer used was 40 mM Ammonium Formate Buffer, pH 3.5. Pharmacokinetic prarameters were estimated by a non-compartmental model using WinNonlin v5.2.1 software.
# [3] = target: hSERT (Homo sapiens, UniProt P31645); experiment: Inhibition of [3H]5-HT uptake by cloned human SERT in HEK293 cells
# Sequence of hSERT (P31645 whole entry): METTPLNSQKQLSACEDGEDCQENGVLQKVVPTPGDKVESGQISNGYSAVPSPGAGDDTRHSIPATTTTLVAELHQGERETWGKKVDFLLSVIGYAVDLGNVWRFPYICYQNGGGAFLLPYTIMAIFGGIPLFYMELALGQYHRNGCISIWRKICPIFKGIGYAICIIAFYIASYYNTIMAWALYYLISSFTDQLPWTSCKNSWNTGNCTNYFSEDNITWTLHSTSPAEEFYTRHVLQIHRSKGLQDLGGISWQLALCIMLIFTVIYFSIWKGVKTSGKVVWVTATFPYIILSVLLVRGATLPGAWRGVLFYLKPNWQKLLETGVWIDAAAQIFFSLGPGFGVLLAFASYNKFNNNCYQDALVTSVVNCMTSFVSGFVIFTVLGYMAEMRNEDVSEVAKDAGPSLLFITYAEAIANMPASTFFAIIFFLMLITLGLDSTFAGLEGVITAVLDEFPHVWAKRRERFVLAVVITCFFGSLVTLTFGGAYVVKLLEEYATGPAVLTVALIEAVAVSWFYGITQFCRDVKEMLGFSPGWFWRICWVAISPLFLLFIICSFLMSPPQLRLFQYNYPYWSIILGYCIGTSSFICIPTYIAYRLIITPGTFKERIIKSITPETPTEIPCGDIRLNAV
# [4] = target: hDAT (Homo sapiens, UniProt Q01959); experiment: Inhibition of [3H]DA uptake by cloned human DAT in HEK293 cells; conditions: nM, HEK293 cells expressing hDAT, average±S.E.M., 3 to 10 determinations
# Sequence of hDAT (Q01959 whole entry): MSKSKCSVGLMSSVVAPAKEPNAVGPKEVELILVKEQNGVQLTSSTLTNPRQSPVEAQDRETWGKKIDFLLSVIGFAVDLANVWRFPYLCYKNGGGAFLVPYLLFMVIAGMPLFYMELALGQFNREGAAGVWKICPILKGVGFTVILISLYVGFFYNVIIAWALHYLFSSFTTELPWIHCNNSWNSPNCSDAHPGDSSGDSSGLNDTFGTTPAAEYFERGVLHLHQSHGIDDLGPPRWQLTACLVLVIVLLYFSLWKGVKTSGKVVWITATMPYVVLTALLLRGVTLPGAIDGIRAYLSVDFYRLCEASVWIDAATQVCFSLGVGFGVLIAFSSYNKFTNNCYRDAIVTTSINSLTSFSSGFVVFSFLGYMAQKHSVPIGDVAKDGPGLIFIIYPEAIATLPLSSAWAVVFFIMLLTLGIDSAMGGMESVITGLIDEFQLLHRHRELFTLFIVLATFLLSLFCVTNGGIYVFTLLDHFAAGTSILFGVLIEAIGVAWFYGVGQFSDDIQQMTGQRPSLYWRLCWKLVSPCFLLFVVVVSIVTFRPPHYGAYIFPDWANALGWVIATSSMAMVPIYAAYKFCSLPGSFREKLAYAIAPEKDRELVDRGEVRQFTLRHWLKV
# [5] = target: hNET (Homo sapiens, UniProt P23975); experiment: Inhibition of [3H]DA uptake by cloned human NET in HEK293 cells; conditions: NET uptake, Ki, nM [3H]DA, HEK293 cells expressing hNET; average±S.E.M., 3 to 10 determinations
# Sequence of hNET (P23975 whole entry): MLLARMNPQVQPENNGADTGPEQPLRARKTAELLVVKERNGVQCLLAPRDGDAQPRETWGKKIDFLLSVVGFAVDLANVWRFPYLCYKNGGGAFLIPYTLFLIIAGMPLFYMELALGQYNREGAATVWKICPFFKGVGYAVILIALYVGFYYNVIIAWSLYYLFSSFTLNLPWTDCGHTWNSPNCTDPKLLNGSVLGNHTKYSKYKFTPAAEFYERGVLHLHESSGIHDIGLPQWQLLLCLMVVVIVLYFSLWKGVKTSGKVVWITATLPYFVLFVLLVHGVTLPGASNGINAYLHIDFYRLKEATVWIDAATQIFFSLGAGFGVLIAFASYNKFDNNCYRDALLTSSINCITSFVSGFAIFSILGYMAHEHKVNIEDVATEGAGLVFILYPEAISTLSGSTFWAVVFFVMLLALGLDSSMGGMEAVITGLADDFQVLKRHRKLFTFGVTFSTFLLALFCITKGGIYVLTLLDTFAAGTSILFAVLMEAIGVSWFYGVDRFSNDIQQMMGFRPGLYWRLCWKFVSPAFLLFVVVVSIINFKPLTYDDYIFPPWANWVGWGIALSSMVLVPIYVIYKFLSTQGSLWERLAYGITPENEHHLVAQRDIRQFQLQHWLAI
# [6] = found earlier by the authors; no reference given; cited from earlier work
# [7] = tested on: dialysate DOPAC; set-up: method as in PMID 2477259; conditions: DAT releaser; cited from earlier work
structure (smiles),measurement,setting,value
"Fc1ccc(C(OCCN2CCN(CCCc3ccccc3)CC2)c2ccc(F)cc2)cc1 [GBR 12909, 1-[2-[bis(4-fluorophenyl)methoxy]ethyl]-4-[3-phenylpropyl]piperazine, reference compound]",Locomotor activity (horizontal activity),[1],significant rise
COc1ccc(CN[C@@H]2CO[C@H](C(c3ccccc3)c3ccccc3)C[C@H]2O)cc1 [Compound D-142],Cmax,"[2]; 3% HPßCD in water, read-out: Average maximum plasma concentration, Cmax",125 ± 36.6 ng/mL
same,half-life,[2]; read-out: Average half-life (converted),2.5 ± 0.96 h
same,Ki,[3],0.00543 ± 0.0014 µM
same,Ki,[4],179 ± 27 nM
same,Ki,[5],21.2 ± 4.3 nM
same,Oral bioavailability,[6],poor oral bioavailability
"COc1ccc(CN[C@@H]2CO[C@H](C(c3ccc(F)cc3)c3ccc(F)cc3)C[C@H]2O)cc1 (as salt: hydrochloride) [Compound D-473, (2S,4R,5R)-2-(bis(4-fluorophenyl)methyl)-5-((4-methoxybenzyl)amino)tetrahydro-2H-pyran-4-ol]",melting point,,190 to 205 °C
CC(N)Cc1ccccc1 (stereo not drawn) [amphetamine],Reductions in DOPAC,[7],~65%
